Like-named read-outs stand apart in the source and are kept apart here.
Legend:
Chlorella sp. ATCC 7516 = experiment: Algal efficacy test of dry paint films (modified ASTM 5589, 6-well plates); type: cell-based; conditions: for inhibition at 2000 ppm: 504 h, read-out: % inhibition of visible algal growth
Method: (§1) ROCIMA™ 250 (40% IPBC) was post added to a white, acrylic/silicone based outdoor paint free of biocides to give a total active ingredient concentration of 10000 and 1000 ppm respectively. These paints were then diluted with an antimicrobial free acrylic/silicone based paint and mixed to prepare targeted concentrations of antimicrobial compounds for the testing. The total biocides concentrations tested were 125, 250, 500, 1000, 2000 and 5000 ppm. After biocides addition or dilution, the paints were mixed 90 seconds with the horse power shaker (AXEL 75M3372/Agitateur SO-10MI) until uniformity was achieved. Paints containing different antimicrobial compounds at the same levels were mixed together in order to obtain the desired ratio of antimicrobial compounds. After one day, the paints were applied to Schleicher & Schuell filter paper at 280 μm wet film thickness and dried for 3 days at room temperature avoiding direct exposure to sunlight. Square discs (1.6 cm×1.6 cm) were cut out from each panel and were used as the substrate for algal efficacy tests. This sample size allowed for an agar border when the sample disc was placed into the well of the test plate.
(§2) Algal efficacy was tested according to modified ASTM 5589 which is a standard accelerated test method for determining resistance of various coatings (including paints) to algal defacement. To accommodate for high-throughput screening, this method was scaled down from petri dishes to 6-well plates. Bold Modified Basal Freshwater Nutrient Solution was used as growth medium. A single coated filter paper coupon was placed with a pair of sterile forceps at the center of the agar plug (on top) with the painted surface facing upwards. Algal inoculums were prepared by mixing equal concentrations (1×10^6 cfu/ml) and equal volumes of exponentially growing algae cultures.
(§3) Each well that contains a tested coupon was inoculated with 1750 μl of algal suspensions (1×10^6 cfu/ml) making sure that the whole surface (paint film as well as the agar surrounding it) was evenly covered. The plates were incubated at room temp (21° C.-25° C.) with cyclic exposure to light and dark phases, for a period of three weeks.
(§4) At the end of the three week incubation period, the samples were scored for percent inhibition regarding visible algal growth compared to the blank sample (0% inhibition).
(§5) The Synergy Index calculation was performed as follows.
(§6) The SI is calculated based on F. C. Kull et.
(§7) SI value of <1 in the formula indicates a synergism of the blended biocides exists.
(§8) The minimal targeted inhibition was set at 75%, meaning a coupon with at least 75% algal growth inhibition was considered as a pass.

[1] = tested on: Stichococcus bacillaris SAG 379-1a; experiment: as above; type: cell-based; conditions: 3 weeks
Method: as §1, §2, §3, §4, §5, §6, §7, §8

Structure (SMILES)	inhibition at 2000 ppm (Chlorella sp. ATCC 7516; total conc 2000 ppm, 3 weeks, vs blank sample)	Total conc (minimum inhibitory concentration chosen for SI; pass level ≧75% inhibition) (Chlorella sp. ATCC 7516; total active in liquid paint, dry film, 3 weeks)	inhibition at 1000 ppm ([1]; Stichococcus bacillaris, 504 h, total conc 1000 ppm, vs blank sample, read-out: % inhibition of visible algal growth)	Total conc (minimum inhibitory concentration chosen for SI; pass level ≧75% inhibition) ([1]; total active in liquid paint, dry film)	inhibition at 2000 ppm (Chlorella sp. ATCC 7516)	inhibition at 2000 ppm ([1]; Stichococcus bacillaris, 504 h, total conc 2000 ppm, vs blank sample, read-out: % inhibition of visible algal growth)
CCCCNC(=O)OCC#CI [IPBC, 3-Iodoprop-2-yn-1-yl butylcarbamate]	100%	2000 ppm	100%	1000 ppm		
O=c1[nH]c2c(c(=O)n1C1CCCCC1)CCC2 [Lenacil, 3-cyclohexyl-1,5,6,7-tetrahydrocyclopentapyrimidine-2,4(3H)-dione]					65%	80%

Source: patent US20150313236A1 (ROHM AND HAAS COMPANY, priority 2012, published 2015)
